Source: ChEMBL document CHEMBL3045595, “Synthesis and characterization of new types of 2-(6-methoxy-2-naphthyl)propionamide derivatives as potential antibacterial and antifungal agents” (2013)
Converted amounts (≈) assume the structure as drawn. The source made the active and inactive calls. The calls are words filed in the database; no cut-off is given here.

How the values were obtained:
Format in all cases: functional
Staphylococcus aureus [1] = test: Antibacterial activity against Staphylococcus aureus RCMB 010027 at 1 mg/ml after 24 hrs by agar well diffusion method; settings: RCMB 010027, 24 h, read-out: DIZ
Pseudomonas aeruginosa [2] = test: Antibacterial activity against Pseudomonas aeruginosa RCMB 010043 at 1 mg/ml after 24 hrs by agar well diffusion method; settings: for zone of inhibition at 1000 µg/mL: RCMB 010043, 24 h, read-out: DIZ
Candida albicans [3] = test: Antifungal activity against Candida albicans RCMB 05035 at 1 mg/ml after 72 hrs by agar well diffusion method; settings: for zone of inhibition at 1000 µg/mL: RCMB 05035, 72 h, read-out: DIZ
Aspergillus ochraceus [4] = test: Antifungal activity against Aspergillus ochraceus RCMB 02593 at 1 mg/ml after 72 hrs by agar well diffusion method; settings: RCMB 02593, 72 h, read-out: DIZ
Escherichia coli [5] = test: Antibacterial activity against Escherichia coli RCMB 000103 at 1 mg/ml after 24 hrs by agar well diffusion method; settings: for zone of inhibition at 1000 µg/mL: RCMB 000103, 24 h, read-out: DIZ
Bacillus subtilis [6] = test: Antibacterial activity against Bacillus subtilis RCMB 010063 at 1 mg/ml after 24 hrs by agar well diffusion method; settings: RCMB 010063, 24 h, read-out: DIZ
Escherichia coli [7] = test: Antibacterial activity against Escherichia coli RCMB 000103 after 24 hrs by twofold serial dilution method; settings: RCMB 000103, 24 h
Bacillus subtilis [8] = test: Antibacterial activity against Bacillus subtilis RCMB 010063 after 24 hrs by twofold serial dilution method; settings: RCMB 010063, 24 h
Staphylococcus aureus [9] = test: Antibacterial activity against Staphylococcus aureus RCMB 010027 after 24 hrs by twofold serial dilution method; settings: RCMB 010027, 24 h
Pseudomonas aeruginosa [10] = test: Antibacterial activity against Pseudomonas aeruginosa RCMB 010043 after 24 hrs by twofold serial dilution method; settings: RCMB 010043, 24 h
Candida albicans [11] = test: Antifungal activity against Candida albicans RCMB 05035
Aspergillus ochraceus [12] = test: Antifungal activity against Aspergillus ochraceus RCMB 02593

SMILES | zone of inhibition at 1000 µg/mL (Staphylococcus aureus [1]) [mm] | diameter of the inhibition zone (DIZ) (Pseudomonas aeruginosa [2]) | zone of inhibition at 1000 µg/mL (Candida albicans [3]) [mm] | zone of inhibition at 1000 µg/mL (Aspergillus ochraceus [4]) [mm] | zone of inhibition at 1000 µg/mL (Escherichia coli [5]) [mm] | zone of inhibition at 1000 µg/mL (Bacillus subtilis [6]) [mm] | diameter of the inhibition zone (DIZ) (Candida albicans [3]) | diameter of the inhibition zone (DIZ) (Escherichia coli [5]) | MIC (Escherichia coli [7]) [µg/mL] | MIC (Bacillus subtilis [8]) [µg/mL] | zone of inhibition at 1000 µg/mL (Pseudomonas aeruginosa [2]) [mm] | MIC (Staphylococcus aureus [9]) [µg/mL] | MIC (Pseudomonas aeruginosa [10]) [µg/mL] | MIC (Candida albicans [11]) | MIC (Aspergillus ochraceus [12]) [µg/mL]
COc1ccc2cc(C(C)C(=O)NC(C)C(=O)O)ccc2c1 (stereo not given) | 15.1 | inactive | 10.6 | 12.7 | 14.3 | 15.8 |  |  |  |  |  |  |  |  | 
COc1ccc2cc(C(C)C(=O)NCCNC(=O)C(C)c3ccc4cc(OC)ccc4c3)ccc2c1 (stereo not given) | 13.1 | inactive |  | 12.6 |  | 14.5 | inactive | inactive |  |  |  |  |  |  | 
COc1ccc2cc(C(C)C(=O)N/C(=C/c3ccc(Cl)cc3)C(=O)Nc3ccc(C)cc3)ccc2c1 (stereo not given) | 19.9 | inactive | 13.6 | 14.8 | 14.3 | 19.6 |  |  |  |  |  |  |  |  | 
COc1ccc2cc(C(C)C(=O)Nc3ccc(Nc4ccccc4)cc3)ccc2c1 (stereo not given) | 13.9 | inactive |  | 17.6 |  | 15.4 | inactive | inactive |  |  |  |  |  |  | 
COc1ccc2cc(C(C)C(=O)Nc3ccc(CC(=O)O)cc3)ccc2c1 (stereo not given) | 17.3 | inactive | 12.2 | 13.9 | 16.6 | 18.4 |  |  |  |  |  |  |  |  | 
COc1ccc2cc(C(C)C(=O)NNC(=O)C(C)c3ccc4cc(OC)ccc4c3)ccc2c1 (stereo not given) | 17.9 | inactive | 13.5 | 16 | 17.1 | 19.4 |  |  |  |  |  |  |  |  | 
COc1ccc2cc(C(C)C3=N/C(=C/c4ccc(F)cc4)C(=O)O3)ccc2c1 (stereo not given) | 20.3 |  | 19.9 | 18.3 | 19.3 | 20.6 |  |  | 15.6 (≈ 41.6 µM) | 3.9 (≈ 10.4 µM) | 15.3 | 7.81 (≈ 20.8 µM) | 62.5 (≈ 166 µM) | 125 µg/mL (≈ 333 µM) | 15.6 (≈ 41.6 µM)
COc1ccc2cc(C(C)C(=O)Nc3ccc(N(C(C)=O)c4ccccc4)cc3)ccc2c1 (stereo not given) | 16.2 | inactive | 9.3 | 12.4 | 14.6 | 17.1 |  |  |  |  |  |  |  |  | 
COc1ccc2cc(C(C)C(=O)Nc3ccc(S(=O)(=O)Nc4ncccn4)cc3)ccc2c1 (stereo not given) | 25.3 |  |  | 11.7 | 21.6 | 28.7 | inactive |  | 3.9 (≈ 8.43 µM) | 7.81 (≈ 16.9 µM) | 16.8 | 0.24 (≈ 0.519 µM) | 3.9 (≈ 8.43 µM) | inactive | 3.9 (≈ 8.43 µM)
COc1ccc2cc(C(C)C(=O)NCc3n[nH]c(=S)[nH]3)ccc2c1 (stereo not given) | 21.9 |  | 18.8 | 20.2 | 20.9 | 23.9 |  |  | 7.81 (≈ 22.8 µM) | 0.97 (≈ 2.83 µM) | 16.8 | 3.9 (≈ 11.4 µM) | 31.2 (≈ 91.3 µM) | 31.2 µg/mL (≈ 91.3 µM) | 7.81 (≈ 22.8 µM)
COc1ccc2cc(C(C)C(=O)Nc3ccc(S(=O)(=O)Nc4cc(C)on4)cc3)ccc2c1 (stereo not given) | 20.6 |  | 16.5 | 17.3 | 19.9 | 21.7 |  |  | 3.9 (≈ 8.38 µM) | 62.5 (≈ 134 µM) | 13 | 31.2 (≈ 67.1 µM) | 1.95 (≈ 4.19 µM) | 250 µg/mL (≈ 537 µM) | 7.81 (≈ 16.8 µM)
COc1ccc2cc(C(C)C(=O)NCC(=O)O)ccc2c1 (stereo not given) | 14.2 | inactive | 20.6 | 20.9 | 13.4 | 16.4 |  |  |  |  |  |  |  |  | 
COc1ccc2cc(C(C)C3=N/C(=C/c4ccc(Cl)cc4)C(=O)O3)ccc2c1 (stereo not given) | 13.9 | inactive |  | 14.5 |  | 15 | inactive | inactive |  |  |  |  |  |  | 
COc1ccc2cc(C(C)C(=O)Nc3ccc(C)cc3)ccc2c1 (stereo not given) | 16.1 | inactive | 12.8 | 14.7 | 15.6 | 17.2 |  |  |  |  |  |  |  |  | 
COc1ccc2cc(C(C)C(=O)NCc3n[nH]c(=S)n3N)ccc2c1 (stereo not given) | 21.6 |  | 20.6 | 19.4 | 20.3 | 23.7 |  |  | 7.81 (≈ 21.8 µM) | 0.97 (≈ 2.71 µM) | 15.9 | 3.9 (≈ 10.9 µM) | 62.5 (≈ 175 µM) | 62.5 µg/mL (≈ 175 µM) | 15.6 (≈ 43.7 µM)
COc1ccc2cc(C(C)C(=O)Nc3ccc(S(=O)(=O)NC(C)=O)cc3)ccc2c1 (stereo not given) | 23.3 |  | 17.8 | 18.6 | 21.3 | 23.4 |  |  | 3.9 (≈ 9.14 µM) | 0.97 (≈ 2.27 µM) | 14.5 | 0.97 (≈ 2.27 µM) | 125 (≈ 293 µM) | 31.2 µg/mL (≈ 73.3 µM) | 15.6 (≈ 36.6 µM)
COc1ccc2cc(C(C)C(=O)Nc3ccc4c(c3)Sc3ccccc3N4)ccc2c1 (stereo not given) | 21.4 |  | 16.9 | 17.6 | 20.2 | 24.6 |  |  | 7.81 (≈ 18.3 µM) | 0.97 (≈ 2.27 µM) | 13.6 | 3.9 (≈ 9.14 µM) | 7.81 (≈ 18.3 µM) | 31.2 µg/mL (≈ 73.3 µM) | 15.6 (≈ 36.6 µM)
O=C(O)c1cn(C2CC2)c2cc(N3CCNCC3)c(F)cc2c1=O [CIPROFLOXACIN] |  |  |  |  |  |  |  |  | 1.95 (≈ 5.89 µM) | 0.007 (≈ 0.0211 µM) |  | 0.06 (≈ 0.181 µM) | 31.2 (≈ 94.3 µM) |  | 
COc1ccc2cc(C(C)C(=O)Nc3ccc(C(=O)O)cc3)ccc2c1 (stereo not given) | 21.6 |  | 15.6 | 19.4 | 20.3 | 23.7 |  |  | 1.95 (≈ 5.58 µM) | 3.9 (≈ 11.2 µM) | 15.9 | 0.24 (≈ 0.687 µM) | 15.6 (≈ 44.7 µM) | 62.5 µg/mL (≈ 179 µM) | 7.81 (≈ 22.4 µM)
